Test results: patent US8057829B2, “Methods for repelling insects using sesquiterpene hydrocarbons and their derivatives” (Sterling International Inc., priority 2008, dated 2011)

Experiments:
[1] = system: female antennae of sand fly Phlebotomus papatasi and mosquitoes Aedes aegypti, Anopheles gambiae, Anopheles stephensi; experiment: GC-EAD responses of sand fly and three mosquitoes to synthetic mixtures; conditions: about 100 ng of each compound, on one or more of the sand fly or the mosquitoes, FIGS. 9 and 10
Description: The GC-EAD responses of female antennae of the sand fly, Phlebotomus papatasi, and three species of mosquitoes, Aedes aegypti, Anopheles gambiae, and anopheles stephensi were tested on a synthetic mixture of 1-octen-3-ol, six sesquiterpene hydrocarbons including (+)-longipinene, (−)-isolongifolene, (+)-longifolene, β-caryophyllene, isolongifolenone, and α-humulene, and several known insect repellents including ZE-nepetalactone, EZ-nepetalactone, with about 100 ng of each compound in the mixture.
The GC-EAD responses of female antennae of the sand fly, Phlebotomus papatasi, and three species mosquitoes, Aedes aegypti, Anopheles gambiae, and anopheles stephensi were tested on a synthetic mixture of 1-octen-3-ol, linalool, β-caryophyllene oxide, isocaryophyllene, β-caryophyllene, and α-humulene, and DEET, with about 100 ng of each compound in the mixture.
(§1) The following procedures were employed to test the EAD response of an insect antenna to a repellent compound. The GC-EAD technique provides an efficient tool for screening behaviorally active repellents. Several synthetic mixtures of potential insect repellent candidates, mostly sesquiterpene hydrocarbons and derivatives, were analyzed in splitless mode using a Varian CP-3800 GC equipped with a polar column (Innowax; 1.0 μm film thickness, 30 m×0.53 mm ID; J & W Scientific), and a 1:1 effluent splitter that allowed simultaneous flame ionization detection (FID) and EAD of the separated volatile compounds. Helium was used as the carrier gas, and the injector temperature was 220° C. The column temperature was 50° C. for 2 min, rising to 240° C. at 10° C./min, then held for 10 min. The outlet for the EAD was held in a humidified air stream flowing at 0.5 liter/min. over an antennal preparation. A glass capillary indifferent electrode filled with Beadle-Ephrussi Ringer, and grounded via a silver wire, was inserted into the severed insect's head with the antennae. A similar recording electrode connected to a high-impedance DC amplifier with automatic baseline drift compensation was placed in contact with the distal end of one antenna (Zhang et al., Chemoecology, 10:69-80 (2000)). The antennal signals were stored and analyzed on a PC equipped with a serial IDAC interface box and the program EAD ver. 2.5 (Syntech, Hilversum, The Netherlands). The compound 1-octen-3-ol (known attractant for many flies and mosquitoes) was included in most of the synthetic mixtures, as a positive control. The results of the experiments are shown in FIGS. 1-10 and described above.

[2] = system: housefly (Musca domestica) antenna; experiment: GC-EAD antennal response, housefly; conditions: female housefly antenna; synthetic mixture, about 100 ng of each compound; FIG. 3
Text: The sesquiterpene hydrocarbons and their derivatives disclosed herein have been identified as suitable insect repellents by testing via a gas chromatographic-electroantennographic detection (GC-EAD) method as described in Example 1 below. This method can be used to efficiently screen for potentially behaviorally active compounds, including insect repellents, attractants, deterrents, or attraction-inhibitors from complex natural sources or synthetic mixtures.
The GC-EAD responses of the female housefly antenna were tested on a synthetic mixture of 1-octen-3-ol, a known attractant used as a positive control, and representative sesquiterpene hydrocarbons and derivatives, (+)-longipinene, (−)-isolongifolene, (+)-longifolene, β-caryophyllene, α-humulene, and isolongifolenone, with about 100 ng of each compound in the mixture.
The GC-EAD responses of the male housefly antenna were tested on a synthetic mixture of 1-octen-3-ol, and two representative sesquiterpenes, β-caryophyllene and isocaryophyllene, with about 100 ng of each compound in the mixture.
as §1

houseflies = experiment: Laboratory sticky trap bioassay of spatial repellency with egg powder attractant; type: in vivo, housefly (Musca domestica); conditions: egg powder plus repellent, FIG. 13
Description: Laboratory bioassay tests were carried out to investigate the efficacy of some of the EAD-active compounds described above to act as spatial repellents against several insects. The procedure for the bioassay tests is described in Example 2 below. Briefly stated, the bioassay included using egg powder (EP) as an attractant for flies, while the compound whose insect repellency was being tested was placed in proximity to the egg powder. In FIGS. 11-13, the bioassay was carried out on houseflies using devices known by the designation Trécé Pherocon® VI sticky traps.
The following lab bioassay tests were employed to illustrate the efficacy of the compounds to effectively act as spatial repellents for flies. Three sets of tests were conducted in a fly testing room (23° C., 70% RH, and 12/12 (L/D) light regime illuminated by fluorescent lights). Two sets of tests were carried out using Trécé Pherocon® VI traps with sticky inserts, which were set up on poles evenly spaced on a rotating table. The traps were ca. 1 m above a table surface, and ca. 1 m apart from each other. Two grams of egg powder in a white cap (4 cm in diameter, 0.5 cm in height) used as an attractant was put on the center of the sticky insert in the sticky trap. The potential repellent candidate chemicals were loaded into polyethylene bags, and were hung under the inner roof of the traps, 1-1.5 cm above the egg powder attractant. A control had the empty white cap and blank polyethylene bag, while the positive control had only the egg powder and an empty polyethylene bag. The test table was rotated 1.5 r.p.h. […] About 200-300 houseflies (2-3 days old) were released into the testing room for each test. Tests were normally run from 8:00 am to 5:00 pm, and the numbers of houseflies caught in each trap were counted after each test. The results of these tests are shown in FIGS. 11-13 and described above.

[3] = system: female mosquito Culex pipiens antenna; experiment: GC-EAD antennal response, Culex pipiens; conditions: female Culex pipiens antennae; about 100 ng of each compound; responses weak, but repeatable; FIGS. 7 and 8
Description: The GC-EAD responses of the female mosquito Culex pipiens antenna were tested on a synthetic mixture of 1-octen-3-ol, and two sesquiterpene hydrocarbons, β-caryophyllene and isocaryophyllene, with about 100 ng of each compound in the mixture.
The GC-EAD responses of the female mosquito Culex pipiens antenna were tested on a synthetic mixture of 1-octen-3-ol, and representative sesquiterpene hydrocarbons and derivatives including (+)-longipinene, (−)-isolongifolene, (+)-longifolene, β-caryophyllene, and isolongifolenone, with about 100 ng of each compound in the mixture.
Antennal responses were weak, but repeatable, thus are considered to be true responses.
as §1

## CC1(C)C2=CCCC(C)(C)C23CCC1C3 (single isomer, unassigned; (-)) [(−)-isolongifolene, 2,2,7,7-tetramethyltricyclo undec-5-ene]
[1]
  GC-EAD antennal activity: antennally active
[2]
  GC-EAD antennal activity: active
houseflies; egg powder alone 76 females
  female house flies per trap: 39 house flies per trap
houseflies; egg powder alone 95 males
  male house flies per trap: 30 house flies per trap
[3]
  GC-EAD antennal activity: active
